Experimental data published in ChEMBL document CHEMBL1201862, “PubChem BioAssay data set” (2004).
Active and inactive are the calls of the source.

How the values were obtained:
[1] = cytotoxicity toward MDA-MB-231 breast cancer cells – cell-based, CellTiter-Glo luminescence, cherry-pick, cytotoxicity control for RAD54 inhibitor project, dose response (AID 651692); format: functional
[2] = target: T1, DNA repair and recombination protein RAD54-like (Homo sapiens, UniProt Q92698); experiment: RAD54 Holliday junction migration blockers – biochemical, fluorescence, cherry-picked samples, dose series, confirmation (AID 651657); format: functional
T1 sequence (Q92698 whole entry): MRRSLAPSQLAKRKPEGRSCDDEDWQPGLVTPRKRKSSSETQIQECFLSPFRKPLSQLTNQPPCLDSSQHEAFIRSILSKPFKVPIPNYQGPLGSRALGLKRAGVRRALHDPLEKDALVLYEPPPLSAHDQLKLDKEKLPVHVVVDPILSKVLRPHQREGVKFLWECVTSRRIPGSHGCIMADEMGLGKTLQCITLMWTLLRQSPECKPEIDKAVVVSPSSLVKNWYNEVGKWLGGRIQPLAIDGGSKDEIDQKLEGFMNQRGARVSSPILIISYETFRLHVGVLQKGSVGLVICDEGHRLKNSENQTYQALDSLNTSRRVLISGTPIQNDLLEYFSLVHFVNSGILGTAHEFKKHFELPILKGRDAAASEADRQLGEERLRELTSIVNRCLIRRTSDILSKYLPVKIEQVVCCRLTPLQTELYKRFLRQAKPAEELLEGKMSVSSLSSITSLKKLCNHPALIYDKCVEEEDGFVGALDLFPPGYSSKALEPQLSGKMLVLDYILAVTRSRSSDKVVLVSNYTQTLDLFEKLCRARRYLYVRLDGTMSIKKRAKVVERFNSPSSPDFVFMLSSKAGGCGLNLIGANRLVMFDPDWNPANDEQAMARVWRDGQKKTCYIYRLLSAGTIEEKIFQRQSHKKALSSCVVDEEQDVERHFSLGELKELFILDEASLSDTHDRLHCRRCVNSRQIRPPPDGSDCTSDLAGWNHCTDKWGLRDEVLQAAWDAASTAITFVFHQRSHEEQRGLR

[3] = target: T2, DNA repair protein RAD52 homolog (Homo sapiens, UniProt P43351); format: functional, biochemical
T2 sequence (P43351 whole entry): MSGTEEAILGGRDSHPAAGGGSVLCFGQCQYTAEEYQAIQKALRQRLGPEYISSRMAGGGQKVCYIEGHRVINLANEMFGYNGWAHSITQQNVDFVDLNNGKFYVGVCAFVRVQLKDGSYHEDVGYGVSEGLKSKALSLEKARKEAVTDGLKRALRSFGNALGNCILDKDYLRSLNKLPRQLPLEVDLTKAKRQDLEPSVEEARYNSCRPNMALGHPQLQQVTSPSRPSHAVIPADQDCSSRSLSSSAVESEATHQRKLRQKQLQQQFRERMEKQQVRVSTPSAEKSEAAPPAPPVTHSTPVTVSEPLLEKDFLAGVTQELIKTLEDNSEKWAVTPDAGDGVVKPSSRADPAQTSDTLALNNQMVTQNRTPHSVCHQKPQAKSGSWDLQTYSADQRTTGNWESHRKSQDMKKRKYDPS

[4] = target: Nuclear receptor subfamily 5 group A member 2 (Homo sapiens, UniProt O00482); format: functional, cell-based;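 note: HEK293T cells transfected with LRH-1 and a StAR promoter luciferase reporter; potency for inhibitors that lower LRH-1 driven reporter light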
Chain of Nuclear receptor subfamily 5 group A member 2 (O00482 whole entry): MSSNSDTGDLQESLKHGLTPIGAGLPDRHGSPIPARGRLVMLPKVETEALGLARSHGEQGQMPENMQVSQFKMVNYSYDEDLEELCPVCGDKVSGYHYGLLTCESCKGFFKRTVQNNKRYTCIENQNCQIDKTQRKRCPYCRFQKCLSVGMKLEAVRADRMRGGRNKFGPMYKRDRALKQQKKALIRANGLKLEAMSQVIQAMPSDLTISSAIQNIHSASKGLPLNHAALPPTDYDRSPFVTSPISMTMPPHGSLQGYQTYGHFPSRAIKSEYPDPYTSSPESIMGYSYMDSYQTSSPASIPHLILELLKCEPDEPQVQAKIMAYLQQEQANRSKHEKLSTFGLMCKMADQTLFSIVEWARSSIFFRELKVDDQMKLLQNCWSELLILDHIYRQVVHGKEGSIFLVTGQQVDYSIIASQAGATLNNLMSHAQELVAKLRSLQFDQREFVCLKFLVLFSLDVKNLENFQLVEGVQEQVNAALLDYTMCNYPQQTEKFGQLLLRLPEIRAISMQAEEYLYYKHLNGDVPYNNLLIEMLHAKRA

Steroidogenic factor 1 = Steroidogenic factor 1 (Homo sapiens, UniProt Q13285); experiment: Counterscreen for inverse agonists of the liver receptor homolog-1 (LRH-1; NR5A2): Luminescence-based cell-based high throughput dose response assay to identify inverse agonists of the Steroidogenic Factor 1 Nuclear Receptor (SF1; NR5A1).; format: functional
Chain of Steroidogenic factor 1 (Q13285 whole entry): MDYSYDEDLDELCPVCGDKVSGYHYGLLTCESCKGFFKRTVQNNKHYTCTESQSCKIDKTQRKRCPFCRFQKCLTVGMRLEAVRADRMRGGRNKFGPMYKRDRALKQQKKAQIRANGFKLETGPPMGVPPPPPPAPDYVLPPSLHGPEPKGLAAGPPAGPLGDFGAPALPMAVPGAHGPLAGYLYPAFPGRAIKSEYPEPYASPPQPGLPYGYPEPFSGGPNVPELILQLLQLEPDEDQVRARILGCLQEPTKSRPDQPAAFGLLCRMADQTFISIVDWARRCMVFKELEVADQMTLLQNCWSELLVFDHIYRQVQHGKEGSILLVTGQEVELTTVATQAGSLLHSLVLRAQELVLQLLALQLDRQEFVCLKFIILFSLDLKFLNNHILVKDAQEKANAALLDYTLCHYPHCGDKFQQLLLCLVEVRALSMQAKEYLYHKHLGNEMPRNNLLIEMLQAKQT

[5] = nonselective StAR promoter luciferase inhibitors – cell-based, luminescence, luciferase reporter, counter-screen for LRH-1 inverse agonist project, dose response (AID 651969); format: functional
Mu-type opioid receptor = Mu-type opioid receptor (Homo sapiens, UniProt P35372); format: functional, cell-based;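 note: U2OS cells with beta-arrestin recruitment to OPRM1 by beta-gal complementation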
Chain of Mu-type opioid receptor (P35372 whole entry): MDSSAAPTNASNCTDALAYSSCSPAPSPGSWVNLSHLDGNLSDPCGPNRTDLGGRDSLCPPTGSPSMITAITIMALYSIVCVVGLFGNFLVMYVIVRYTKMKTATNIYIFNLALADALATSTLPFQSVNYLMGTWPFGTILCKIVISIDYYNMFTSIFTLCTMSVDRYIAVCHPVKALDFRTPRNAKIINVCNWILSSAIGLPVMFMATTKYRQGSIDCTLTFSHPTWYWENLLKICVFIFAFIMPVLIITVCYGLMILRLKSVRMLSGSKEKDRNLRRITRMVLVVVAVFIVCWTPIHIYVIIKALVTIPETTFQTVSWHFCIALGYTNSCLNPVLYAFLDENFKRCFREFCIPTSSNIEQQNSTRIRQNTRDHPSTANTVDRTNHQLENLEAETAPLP

[6] = target: 5-hydroxytryptamine receptor 2A (Mus musculus, UniProt P35363); format: functional, cell-based;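 note: CHO-K1 cells with tagged receptor and beta-arrestin; agonist potency measured as compound-induced activation of the receptor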
Chain of 5-hydroxytryptamine receptor 2A (P35363 whole entry): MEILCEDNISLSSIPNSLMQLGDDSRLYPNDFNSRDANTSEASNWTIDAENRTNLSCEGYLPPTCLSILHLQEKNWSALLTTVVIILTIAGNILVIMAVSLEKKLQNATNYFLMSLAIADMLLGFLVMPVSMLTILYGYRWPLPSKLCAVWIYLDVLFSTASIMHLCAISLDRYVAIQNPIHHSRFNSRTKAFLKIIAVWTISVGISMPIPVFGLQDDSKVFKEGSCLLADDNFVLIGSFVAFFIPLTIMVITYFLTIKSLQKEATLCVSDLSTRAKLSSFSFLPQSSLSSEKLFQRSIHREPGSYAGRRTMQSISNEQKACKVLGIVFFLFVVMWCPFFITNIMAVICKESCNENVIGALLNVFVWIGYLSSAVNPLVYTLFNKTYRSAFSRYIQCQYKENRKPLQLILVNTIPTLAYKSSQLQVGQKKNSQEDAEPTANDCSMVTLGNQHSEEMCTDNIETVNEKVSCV

[7] = Luminescence Cell-Based Dose Retest to Confirm Inhibitors of Cancer Stem Cells. [Related pubchem assays (depositor defined):AID2717, AID2721]; format: functional; conditions: Homo sapiens
[8] = target: Photoreceptor-specific nuclear receptor (Homo sapiens, UniProt Q9Y5X4); format: functional, cell-based;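 note: CHO-S cells with Gal4-NCOR and VP16-NR2E3 two-hybrid luciferase reporter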
Chain of Photoreceptor-specific nuclear receptor (Q9Y5X4 whole entry, the tested form may be a part): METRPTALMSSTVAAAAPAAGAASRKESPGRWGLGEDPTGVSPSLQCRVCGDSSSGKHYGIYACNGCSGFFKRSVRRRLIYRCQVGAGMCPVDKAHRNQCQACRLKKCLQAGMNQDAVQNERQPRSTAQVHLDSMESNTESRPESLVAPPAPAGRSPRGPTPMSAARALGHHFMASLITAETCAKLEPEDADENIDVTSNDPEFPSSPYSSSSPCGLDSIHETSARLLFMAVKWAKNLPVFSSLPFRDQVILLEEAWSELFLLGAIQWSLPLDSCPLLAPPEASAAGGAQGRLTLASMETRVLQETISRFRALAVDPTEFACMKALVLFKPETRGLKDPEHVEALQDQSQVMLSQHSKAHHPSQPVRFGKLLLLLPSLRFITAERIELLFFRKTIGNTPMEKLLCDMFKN

[9] = target: T3, Small ubiquitin-related modifier 1 (Homo sapiens, UniProt P63165); experiment: SUMO1 protein interaction blockers, potency – biochemical, fluorescence polarization, uHTS hits, dose response (AID 624382); format: functional; conditions: read-out: IC50_Mean
T3 sequence (P63165 whole entry): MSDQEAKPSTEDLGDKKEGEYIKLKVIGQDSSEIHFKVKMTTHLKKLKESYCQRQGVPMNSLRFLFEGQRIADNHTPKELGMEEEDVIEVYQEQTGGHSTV

[10] = target: T3, Small ubiquitin-related modifier 1; experiment: SUMO1 protein-protein binding blockers, potency – biochemical, FRET, dose response (AID 624383); format: functional; conditions: read-out: IC50_Mean
[11] = HPDE-C7 pancreatic duct cell viability loss – fluorescence, HTS (AID 430); format: functional, cell-based; conditions: Homo sapiens
[12] = viability loss of HPDE-C7K cells – cell-based, fluorescence, HTS, primary screen (AID 431); format: functional; conditions: Homo sapiens
[13] = viability of PTEN-deleted HCT116 cells – cell-based, HCT116 PTEN knockout, dose response (AID 1047); format: functional;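 note: HCT116 colon tumor cells with PTEN knocked out; cells exposed to compound for 60 hours before readout; potency for loss of cell viability measured by luminescence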
[14] = viability of HCT116 lacking mutant beta-catenin – cell-based, human colon tumor, dose response (AID 1045); format: functional;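 note: HCT116 colon tumor cells with beta catenin knocked out; cells exposed to compound for 60 hours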
[15] = target: T4, Low molecular weight phosphotyrosine protein phosphatase (Homo sapiens, UniProt P24666); format: functional; conditions: read-out: IC50_Mean;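 note: Dose-response confirmation assay measuring inhibition of LMPTP enzyme activity by fluorescence intensity read-out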
T4 sequence (P24666 whole entry): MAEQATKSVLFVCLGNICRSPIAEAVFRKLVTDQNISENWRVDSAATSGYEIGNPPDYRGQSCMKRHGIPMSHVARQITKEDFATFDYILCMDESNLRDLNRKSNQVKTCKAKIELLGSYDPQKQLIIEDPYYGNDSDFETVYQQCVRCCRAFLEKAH

[16] = target: T5, Tyrosine-protein phosphatase non-receptor type 22 (Homo sapiens, UniProt Q9Y2R2); experiment: PTPN22 enzyme inhibitors – biochemical, fluorescence, LYP catalytic domain, selectivity assay for LMPTP inhibitor project, dose response (AID 652006); format: functional; conditions: read-out: IC50_Mean
T5 sequence (Q9Y2R2 whole entry): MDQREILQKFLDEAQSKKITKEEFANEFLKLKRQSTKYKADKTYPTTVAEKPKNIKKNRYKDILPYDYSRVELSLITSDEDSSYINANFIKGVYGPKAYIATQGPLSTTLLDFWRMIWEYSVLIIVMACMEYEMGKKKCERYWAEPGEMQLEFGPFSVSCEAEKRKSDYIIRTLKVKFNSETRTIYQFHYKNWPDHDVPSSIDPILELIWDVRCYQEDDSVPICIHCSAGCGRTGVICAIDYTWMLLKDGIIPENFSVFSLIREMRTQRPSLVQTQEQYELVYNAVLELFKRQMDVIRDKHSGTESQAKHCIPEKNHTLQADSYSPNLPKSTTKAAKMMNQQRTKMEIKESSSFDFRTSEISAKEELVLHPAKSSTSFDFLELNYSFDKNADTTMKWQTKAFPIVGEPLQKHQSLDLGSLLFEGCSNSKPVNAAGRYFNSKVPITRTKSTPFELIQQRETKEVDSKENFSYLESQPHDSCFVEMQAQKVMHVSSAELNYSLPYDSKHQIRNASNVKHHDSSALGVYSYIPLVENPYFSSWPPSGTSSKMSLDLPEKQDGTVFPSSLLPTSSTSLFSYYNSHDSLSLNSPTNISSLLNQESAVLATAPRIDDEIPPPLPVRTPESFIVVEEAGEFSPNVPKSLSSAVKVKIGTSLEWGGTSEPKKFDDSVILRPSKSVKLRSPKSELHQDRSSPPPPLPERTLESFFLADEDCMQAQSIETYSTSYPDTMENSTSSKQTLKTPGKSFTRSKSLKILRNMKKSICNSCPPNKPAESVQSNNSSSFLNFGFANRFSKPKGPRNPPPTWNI

For `COc1ccc(-c2oc3ncnc(NCCCN(C)C)c3c2-c2ccc(OC)cc2)cc1`, the AC50 [1] was 12.9 µM (active), the AC50 [2] was 21.7 µM (active) and the AC50 [3] was 3.48 µM (active).

In the case of `CCOc1ccc(NC(=O)COC(=O)c2ccc3c(c2)OCCO3)cc1`, the IC50 [4] is reported as 12.9 µM (inactive), the IC50 (Steroidogenic factor 1) is reported as 1.01 µM (active) and the IC50 [5] is reported as 35.9 µM (inactive).

For `Cc1ccccc1C(=O)O/N=C(\c1ccccc1)c1ccccn1`, the EC50 (Mu-type opioid receptor) was 92.5 µM (inactive) and the EC50 [6] was 20.2 µM (inactive).

For `CCc1ccccc1Nc1nn2c(=O)c3ccc(C(=O)NCc4ccccn4)cc3nc2s1`, the AC50 [7] was 0.343 µM (active), the IC50 [8] was 13.1 µM (inactive) and the IC50 [9] was > 66.6 µM (inactive). For the same compound, the IC50 [10] was 10.4 µM (active).

In the case of `CC(=O)Nc1ccc(S(=O)(=O)N2CCN(c3nc(NC4CCCC4)c4ccccc4n3)CC2)cc1`, the EC50 [11] is reported as 12.4 µM (active), the EC50 [12] is reported as 13.2 µM (active) and the EC50 [13] is reported as 13.7 µM (active). The EC50 [14] was 12.7 µM (active), the IC50 [15] was 20.7 µM (inactive) and the IC50 [16] was 28.2 µM (inactive).
